The test system of this experiment is HL-60. Description: Induction of apoptosis in human HL60 cells assessed as loss of mitochondrial membrane potential at 5 uM after 24 hrs by rodamine-123 staining-based flow cytometric analysis (reference value: 6%). The experiment is classed as functional.

As to `CC[C@@]1(O)C(=O)OCc2c1cc1n(c2=O)Cc2cc3ccccc3nc2-1` [CAMPTOTHECIN], the Activity is reported as 55.5%.

Source of the values: ChEMBL document CHEMBL1944511, “Bakuchiol derivatives as novel and potent cytotoxic agents: a report” (Eur J Med Chem, 2012).
